This note sets out measurements from patent US9456971B2, “Moisturizer and cosmetic agent containing same” (AJINOMOTO CO., INC., priority 2012, dated 2016).

Common to all, as to assay type: physicochemical
A short description of series [1]: Stability against decomposition (acceleration test, HPLC). The following applies: 30.0 wt % in water, 70° C. for 22 days. As for the experimental part:
Solutions of the compound of Synthetic Example 2 (decanoyl proline Na, 30.0 wt %) in water with or without addition of etidronate to 0.1 wt % were prepared, and they were subjected to an acceleration test at 70° C. for 22 days. The decomposition rate of the compound of Synthetic Example 2 in each composition was measured using HPLC (20A manufactured by Shimadzu Corporation).

Series [2] can be described thus: Evaluation of moisturizer: hygroscopicity. To be noted: A(%)=([2]−[1])/[1]×100; vacuum-dried sample allowed to absorb moisture at 65% RH, 25° C. for 14 days. How it is done: (§1) To study the hygroscopicity and water retention ability of moisturizers, the following experiment was performed.
Decanoyl proline sodium obtained in Synthetic Example 2, betaine (“aminocoat” manufactured by Asahi Kasei Corporation), sodium lactate (manufactured by Wako), sodium pyrrolidonecarboxylate (“AJIDEW” NL-50 manufactured by Ajinomoto Co., Inc.), glycerol (“concentrated glycerin” manufactured by Kao Corporation), and sorbitol (manufactured by Kao Corporation) were each dried under vacuum. The moisture level of the samples was measured by Karl Fischer moisture meter, the amount of water was determined, and the weight other than the moisture level was calculated ([1]). Thereafter, the samples were allowed to absorb moisture under the conditions of 65% RH, 25° C. for 14 days, and the weight was measured ([2]). Thereafter, the samples were dried under the conditions of 35% RH, 25° C. for 14 days, and the weight was measured ([3]).
• A(%)=([2]−[1])/[1]×100 was calculated and the samples were evaluated according to the following criteria. • ⊙: value of A is not less than 15% • ◯: value of A is not less than 12% and less than 15% • Δ: value of A is not less than 10% and less than 12% • ×: value of A is less than 10% [Water Retention Ability] • R(%)=[3]/[2]×100 was calculated and the samples were evaluated according to the following criteria. • ⊙: value of R is not less than 80% • ◯: value of R is not less than 60% and less than 80% • Δ: value of R is not less than 40% and less than 60% • ×: value of R is less than 40%

Series [3] is described as follows: Evaluation of moisturizer: water retention ability. To be noted: R(%)=[3]/[2]×100; after moisture absorption, dried at 35% RH, 25° C. for 14 days. As for the experimental part:
as §1
Decanoyl proline sodium obtained in Synthetic Example 2, betaine (“aminocoat” manufactured by Asahi Kasei Corporation), sodium lactate (manufactured by Wako), sodium pyrrolidonecarboxylate (“AJIDEW” NL-50 manufactured by Ajinomoto Co., Inc.), glycerol (“concentrated glycerin” manufactured by Kao Corporation), and sorbitol (manufactured by Kao Corporation) were each dried under vacuum. The moisture level of the samples was measured by Karl Fischer moisture meter, the amount of water was determined, and the weight other than the moisture level was calculated ([1]). Thereafter, the samples were allowed to absorb moisture under the conditions of 65% RH, 25° C. for 14 days, and the weight was measured ([2]). Thereafter, the samples were dried under the conditions of 35% RH, 25° C. for 14 days, and the weight was measured ([3]). […]

Regarding `CCCCCCCCCC(=O)N1CCC[C@H]1C(=O)[O-].[Na+]` [Example 1, decanoyl proline sodium salt], the “decomposition rate of decanoyl proline Na” value in series [1] (etidronate added to 0.1 wt %) stood at 0.8%; in series [1] (etidronate not added) it was 2.4%. The hygroscopicity result in series [2] is “⊙ (value of A is not less than 15%)”. In series [3], the water retention ability entry is “⊙ (value of R is not less than 80%)”.
As to `C[N+](C)(C)CC(=O)O` [compound 1, betaine], the hygroscopicity result in series [2] is recorded as “⊙ (value of A is not less than 15%)”. The water retention ability entry in series [3] is “Δ (value of R is not less than 40% and less than 60%)”.
`CC(O)C(=O)[O-].[Na+]` (stereo not drawn) [compound 2, sodium lactate]: the hygroscopicity entry in series [2] is recorded as “⊙ (value of A is not less than 15%)”.
`O=C1CCC(C(=O)[O-])N1.[Na+]` (stereo not drawn) [compound 3, sodium pyrrolidonecarboxylate]: in series [2], the hygroscopicity result was “⊙ (value of A is not less than 15%)”.
Still for that read-out and setting: then `OCC(O)CO` [compound 4, glycerol], with “⊙ (value of A is not less than 15%)”.
